MIC data for ten compounds are collected here from DBAASP.

Structures are written as SMILES. In brackets after ≈: the same amount, converted by molar mass. Some results are limits rather than exact numbers.

As usually defined, the MIC is the lowest concentration found to suppress growth. A low value points to greater potency.

What all share (test): ≥ marks a high value that may be exact or a test limit, other limits are often not marked, values filed in µg/mL are converted to µM
Test [1] relates to Staphylococcus aureus ATCC 25923.
In test [2] the test system is Escherichia coli ML-35p.
Test [3] concerns Candida albicans ATCC 2002.
For test [4], the system named is Bacillus subtilis.
Test [5] concerns Staphylococcus aureus ATCC 43300.
In test [6] the test system is Escherichia coli BL21.
Test [7] has as its system Pseudomonas aeruginosa PAO1.
Test [8] concerns Streptococcus pyogenes M1T1 5448.
The test system of test [9] is Batrachochytrium dendrobatidis JEL-197.
Test [10] relates to Escherichia coli ATCC 25726.
Test [11] relates to Candida albicans ATCC 90028.

Regarding `CC[C@H](C)[C@H](NC(=O)CNC(=O)[C@H](C)NC(=O)[C@H](C)NC(=O)[C@@H](NC(=O)[C@H](CCCCN)NC(=O)[C@H](CC(C)C)NC(=O)[C@@H](NC(=O)[C@@H]1CCCN1C(=O)CNC(=O)[C@@H](NC(=O)[C@@H](N)Cc1ccccc1)[C@@H](C)CC)C(C)C)[C@@H](C)CC)C(=O)N[C@@H](CC(C)C)C(=O)N1CCC[C@H]1C(=O)N[C@H](C(=O)N[C@@H](C)C(=O)N[C@H](C(=O)N[C@H]1CSSC[C@@H](C(=O)O)NC(=O)[C@H](CCCCN)NC(=O)[C@H](CCCCN)NC(=O)[C@H](Cc2ccccc2)NC(=O)[C@H]([C@@H](C)CC)NC(=O)[C@H](CCCCN)NC1=O)[C@@H](C)CC)[C@@H](C)O` [FIGPVLKIAAGILPTAICKIFKKC], the MIC in [1] is 0.919 µM (≈ 2.34 µg/mL); in test [2], 7.37 µM (≈ 18.7 µg/mL); in test [3] it was 1.84 µM (≈ 4.69 µg/mL); in [4] it was 1.84 µM (≈ 4.69 µg/mL); in [5], 3.69 µM (≈ 9.37 µg/mL).

`CC[C@H](C)[C@H](NC(=O)[C@H](Cc1ccccc1)NC(=O)[C@H](C)NC(=O)[C@H](CCCCN)NC(=O)[C@H](CCCCN)NC(=O)CNC(=O)[C@H](CCCN=C(N)N)NC(=O)[C@H](CCCCN)NC(=O)[C@H](CCCN=C(N)N)NC(=O)[C@H](CC(C)C)NC(=O)[C@H](CCC(=O)O)NC(=O)[C@H](CCC(=O)O)NC(=O)[C@H](CCCCN)NC(=O)[C@H](CC(C)C)NC(=O)[C@H](Cc1ccc(O)cc1)NC(=O)[C@H](CC(C)C)NC(=O)[C@@H](NC(=O)[C@H](CC(C)C)NC(=O)[C@H](C)NC(=O)[C@H](CCC(N)=O)NC(=O)[C@H](CCCN=C(N)N)NC(=O)CNC(=O)[C@H](C)N)[C@@H](C)O)C(=O)N[C@@H](Cc1c[nH]c2ccccc12)C(=O)N[C@@H](Cc1c[nH]c2ccccc12)C(=O)O` [AGRQALTLYLKEELRKRGKKAFIWW]: the MIC in test [6] is 16 µM (≈ 49 µg/mL); in test [7], greater than 128 µM; in test [8] it was 4 µM (≈ 12.3 µg/mL).

In the case of `CC[C@H](C)[C@H](NC(=O)CN)C(=O)N[C@@H](CC(C)C)C(=O)N[C@@H](CC(=O)O)C(=O)N[C@H](C(=O)N[C@H](C(=O)N[C@@H](CCCCN)C(=O)NCC(=O)N[C@H](C(=O)N[C@@H](C)C(=O)N[C@@H](CCCCN)C(=O)N[C@@H](CC(=O)O)C(=O)N[C@H](C(=O)N[C@@H](C)C(=O)N[C@@H](C)C(=O)N[C@@H](Cc1cnc[nH]1)C(=O)N[C@@H](CC(C)C)C(=O)N[C@@H](CC(C)C)C(=O)N[C@@H](CC(N)=O)C(=O)N[C@@H](CCSC)C(=O)N[C@H](C(=O)N[C@@H](CCCCN)C(=O)N[C@H]1CSSC[C@@H](C(=O)O)NC(=O)CNC(=O)[C@H]([C@@H](C)O)NC(=O)[C@H]([C@@H](C)CC)NC(=O)[C@H](CCCCN)NC1=O)C(C)C)C(C)C)C(C)C)C(C)C)[C@@H](C)O` [GILDTVKGVAKDVAAHLLNMVKCKITGC], the minimal inhibitory concentration (MIC) was 80 µM (≈ 232 µg/mL) in test [1], no less than 50 µM in test [9] and no less than 160 µM in [10].

Take `CC[C@H](C)[C@H](NC(=O)[C@H](Cc1ccc(O)cc1)NC(=O)[C@H](CCCCN)NC(=O)[C@H](CCCCN)NC(=O)[C@H](CC(C)C)NC(=O)[C@H](CCC(=O)O)NC(=O)[C@H](CCCCN)NC(=O)[C@H](Cc1c[nH]c2ccccc12)NC(=O)[C@@H](NC(=O)[C@H](CCCN=C(N)N)NC(=O)[C@H](CCC(=O)O)NC(=O)[C@H](CO)NC(=O)CNC(=O)[C@H](C)N)[C@@H](C)CC)C(=O)N[C@@H](CCCCN)C(=O)N[C@@H](CCCCN)C(=O)NCC(=O)N[C@@H](CCCCN)C(=O)N[C@@H](CCCCN)C(=O)N[C@H](C(=O)N[C@H](C(=O)N[C@@H](CCCN=C(N)N)C(=O)N[C@@H](C)C(=O)N[C@@H](C)C(=O)N[C@@H](Cc1c[nH]c2ccccc12)C(=O)O)[C@@H](C)CC)C(C)C` [AGSERIWKELKKYIKKGKKVIRAAW]: the minimal inhibitory concentration (MIC) in test [6] was 2 µM (≈ 5.98 µg/mL); in test [7], 8 µM (≈ 23.9 µg/mL); in test [8] it was 16 µM (≈ 47.8 µg/mL).

For the compound `CC[C@H](C)[C@H](NC(=O)[C@H](CCCCN)NC(=O)CNC(=O)[C@H](Cc1ccccc1)NC(=O)[C@H](CCCCN)NC(=O)[C@H](CCCN=C(N)N)NC(=O)[C@H](CC(C)C)NC(=O)[C@H](Cc1ccc(O)cc1)NC(=O)[C@H](CCC(=O)O)NC(=O)[C@H](CC(C)C)NC(=O)[C@H](CC(C)C)NC(=O)[C@H](CCC(=O)O)NC(=O)[C@H](CCCCN)NC(=O)[C@@H](NC(=O)[C@H](CC(C)C)NC(=O)[C@H](CCCN=C(N)N)NC(=O)[C@H](CC(N)=O)NC(=O)[C@H](C)NC(=O)[C@H](CCCCN)NC(=O)[C@H](C)N)[C@@H](C)O)C(=O)N[C@@H](C)C(=O)N[C@@H](CCCN=C(N)N)C(=O)N[C@@H](CCCCN)C(=O)N[C@@H](C)C(=O)N[C@@H](Cc1c[nH]c2ccccc12)C(=O)O` [AKANRLTKELLEYLRKFGKIARKAW], the MIC in [6] came to 2 µM (≈ 6.01 µg/mL); in [7], 16 µM (≈ 48.1 µg/mL); in [8], 4 µM (≈ 12 µg/mL).

For `CC[C@H](C)[C@H](NC(=O)[C@H](CCCCN)NC(=O)[C@H](CCCCN)NC(=O)[C@H](CCCCN)NC(=O)[C@H](CC(C)C)NC(=O)[C@H](Cc1ccccc1)NC(=O)[C@H](CCC(N)=O)NC(=O)[C@H](CCCN=C(N)N)NC(=O)[C@@H](NC(=O)[C@@H](NC(=O)[C@H](CCC(=O)O)NC(=O)[C@H](CCCCN)NC(=O)CNC(=O)[C@H](C)N)[C@@H](C)O)[C@@H](C)CC)C(=O)N[C@@H](CCC(N)=O)C(=O)N[C@@H](CCC(=O)O)C(=O)N[C@@H](Cc1c[nH]c2ccccc12)C(=O)N[C@@H](CCCCN)C(=O)N[C@@H](CCCCN)C(=O)N[C@@H](CCCN=C(N)N)C(=O)N[C@@H](C)C(=O)N[C@H](C(=O)N[C@H](C(=O)N[C@@H](C)C(=O)N[C@@H](Cc1c[nH]c2ccccc12)C(=O)O)[C@@H](C)CC)[C@@H](C)O` [AGKETIRQFLKKKIQEWKKRATIAW], the MIC came out at 0.5 µM (≈ 1.53 µg/mL) in test [6], 16 µM (≈ 48.9 µg/mL) in test [7] and 0.5 µM (≈ 1.53 µg/mL) in test [8].

For the compound `CC[C@H](C)[C@@H]1NC(=O)[C@H](CC(C)C)NC(=O)[C@@H](NC(=O)[C@@H](NC(=O)[C@H](CC(C)C)NC(=O)[C@H](CCCCN)NC(=O)[C@@H]2CCCN2C(=O)[C@@H](NC(=O)[C@H](CCSC)NC(=O)[C@H](CO)NC(=O)[C@H](C)NC(=O)[C@H](C)NC(=O)[C@H](CC(C)C)NC(=O)CNC(=O)[C@H](C)NC(=O)[C@H](CC(C)C)NC(=O)[C@H](CCSC)NC(=O)[C@@H]2CCCN2C(=O)[C@H](CC(C)C)NC(=O)[C@@H](N)Cc2ccccc2)C(C)C)C(C)C)CSSC[C@@H](C(=O)O)NC(=O)[C@H](CCCCN)NC(=O)[C@H](CCCCN)NC(=O)[C@H]([C@@H](C)O)NC1=O` [FLPMLAGLAASMVPKLVCLITKKC], the MIC in [1] was 6 µM (≈ 15.3 µg/mL); in [9], 12.5 µM (≈ 31.8 µg/mL); in test [10], no less than 50 µM; in [11], 12 µM (≈ 30.6 µg/mL).

Consider `CC[C@H](C)[C@@H]1NC(=O)[C@H](CC(C)C)NC(=O)[C@@H](NC(=O)[C@@H](NC(=O)[C@@H](NC(=O)[C@H](CCCCN)NC(=O)[C@@H]2CCCN2C(=O)[C@@H](NC(=O)[C@@H](NC(=O)[C@H](CCCN=C(N)N)NC(=O)[C@H](C)NC(=O)[C@H](C)NC(=O)[C@@H](NC(=O)CNC(=O)[C@H](C)NC(=O)[C@H](CC(C)C)NC(=O)[C@H](CCSC)NC(=O)[C@@H]2CCCN2C(=O)[C@H](Cc2ccccc2)NC(=O)[C@@H](N)Cc2ccccc2)C(C)C)C(C)C)C(C)C)C(C)C)[C@@H](C)CC)CSSC[C@@H](C(=O)O)NC(=O)[C@H](CCCCN)NC(=O)[C@H](CCCCN)NC(=O)[C@H]([C@@H](C)O)NC1=O` [FFPMLAGVAARVVPKVICLITKKC], for which the MIC in test [1] was 12.5 µM (≈ 32.5 µg/mL); in test [9], 6.25 µM (≈ 16.3 µg/mL); in test [10], no less than 50 µM.

`CC[C@H](C)[C@H](NC(=O)[C@H](CO)NC(=O)[C@@H]1CCCN1C(=O)[C@@H](NC(=O)[C@H](CC(C)C)NC(=O)CNC(=O)[C@H](C)NC(=O)[C@H](CC(C)C)NC(=O)[C@@H](NC(=O)[C@@H]1CCCN1C(=O)[C@H](CC(C)C)NC(=O)[C@@H](N)Cc1ccccc1)C(C)C)[C@@H](C)O)C(=O)N[C@H](C(=O)N1CCC[C@H]1C(=O)N[C@@H](CCCCN)C(=O)N[C@@H](CC(C)C)C(=O)N[C@H](C(=O)N[C@H]1CSSC[C@@H](C(=O)O)NC(=O)[C@H](CCCCN)NC(=O)[C@H](CCCCN)NC(=O)[C@H]([C@@H](C)O)NC(=O)[C@H](CC(C)C)NC(=O)[C@H](CC(C)C)NC1=O)C(C)C)C(C)C` [FLPVLAGLTPSIVPKLVCLLTKKC]: the MIC in [1] was 25 µM (≈ 63.8 µg/mL); in [9], 12.5 µM (≈ 31.9 µg/mL); in test [10] it was no less than 100 µM; in [11], 25 µM (≈ 63.8 µg/mL).

For `CC[C@H](C)[C@H](NC(=O)[C@H](CCCCN)NC(=O)CNC(=O)[C@H](Cc1ccccc1)NC(=O)[C@H](CCCCN)NC(=O)[C@H](CCCN=C(N)N)NC(=O)[C@H](CC(C)C)NC(=O)[C@H](Cc1ccc(O)cc1)NC(=O)[C@H](CCC(=O)O)NC(=O)[C@H](CC(C)C)NC(=O)[C@H](CC(C)C)NC(=O)[C@H](CCC(=O)O)NC(=O)[C@H](CCCCN)NC(=O)[C@@H](NC(=O)[C@H](CC(C)C)NC(=O)[C@H](CCCN=C(N)N)NC(=O)[C@H](CCC(N)=O)NC(=O)[C@H](C)NC(=O)CNC(=O)[C@H](C)N)[C@@H](C)O)C(=O)N[C@@H](C)C(=O)N[C@@H](CCCN=C(N)N)C(=O)N[C@@H](CCCCN)C(=O)N[C@@H](C)C(=O)N[C@@H](Cc1c[nH]c2ccccc12)C(=O)O` [AGAQRLTKELLEYLRKFGKIARKAW], the MIC in [6] amounted to 4 µM (≈ 11.8 µg/mL); in [7] it was 64 µM (≈ 189 µg/mL); in test [8], 0.5 µM (≈ 1.47 µg/mL).
